Measured values published in EP4361157A1, “FUSED TETRACYCLIC COMPOUND, PREPARATION METHOD THEREFOR AND APPLICATION THEREOF IN MEDICINE” (Jiangsu Hengrui Pharmaceuticals Co., Ltd., priority 2021, dated 2022).

Experiments:
AGS cells = assay: Inhibition of ERK phosphorylation of AGS cells (HTRF method); type: cell-based; settings: phosphorylated ERK/total ERK ratio, 1 h incubation
Protocol: AGS cells (Nanjing Cobioer, CBP60476) were cultured in RPMI1640 (Hyclone, SH30809.01) complete medium containing 10% fetal bovine serum. On the first day of the experiment, the AGS cells were seeded into a 96-well plate with complete medium at a density of 40,000 cells/well to form 190 µL of cell suspension per well. The plate was incubated overnight in a cell incubator at 37 °C with 5% CO2.
The next day, 10 µL of serially-diluted test compound prepared from the complete medium was added to each well. The final concentrations of the compound were 9 concentration points obtained by 5-fold serial dilution from 10 µM. A blank control containing 0.5% DMSO was set. The well plate was incubated in a cell incubator at 37 °C with 5% CO2 for 1 h. After completion of incubation, the 96-well cell culture plate was taken out, the medium was removed by pipetting, 200 µL PBS (Shanghai BasalMedia Technologies Co., Ltd., B320) was added to each well, and the cells were washed once. PBS was removed by pipetting, 50 µL of lysis buffer (Cisbio, 64KL1FDF) containing a blocking solution (blocking reagent, Cisbio, 64KB1AAC) was added to each well, and the well plate was lysed on a shaker for 40 min at room temperature with shaking. After lysis, the lysate was pipetted and mixed well, 16 µL of lysate was transferred to two HTRF 96-well assay plates (Cisbio, 66PL96100) per well, and then 4 µL of premixed phosphorylated ERK1/2 antibody solution (Cisbio, 64AERPEG) or 4 µL of premixed total ERK1/2 antibody solution (Cisbio, 64NRKPEG) was added to these two plates. The microplate was sealed with a sealing membrane, centrifuged for 1 min in a microplate centrifuge, and incubated overnight at room temperature in the dark. On the third day, the fluorescence values at an excitation wavelength of 337 nm and at emission wavelengths of 665 nm and 620 nm were read using an ENVISION multifunctional microplate reader (PerkinElmer, ENVISION).
Table 1. Inhibitory activity data for ERK phosphorylation of AGS cells

GP2d cells = assay: Inhibition of 3D proliferation of GP2d cells (CellTiter-Glo 3D); type: cell-based; settings: 120 h incubation
Protocol: GP2d cells (Nanjing Cobioer, CBP60010) were cultured in a complete medium, namely DMEM/high glucose medium (Hyclone, SH30243.01) containing 10% fetal bovine serum (Corning, 35-076-CV). On the first day of the experiment, GP2d cells were seeded into a 96-well low adsorption plate (Corning, CLS7007-24EA) with complete medium at a density of 1,000 cells/well to form 90 µL of cell suspension per well. The plate was centrifuged at 2,000 rpm for 5 min at room temperature and then incubated overnight in a cell incubator at 37 °C with 5% CO2.
The next day, 10 µL of serially-diluted test compound prepared from the complete medium was added to each well. The final concentrations of the compound of GP2d cells were 9 concentration points obtained by 3-fold serial dilution from 1 µM, and the final concentrations of the compound of AGS cells were 9 concentration points obtained by 3-fold serial dilution from 10 µM. A blank control containing 0.5% DMSO was set. The well plate was incubated in a cell incubator at 37 °C with 5% CO2 for 120 h. On the seventh day, the 96-well cell culture plate was taken out, 50 µL CellTiter-Glo® 3D reagent (Promega, G9682) was added into each well, the plate was shaken at room temperature for 25 min, pipetted and mixed well, 50 µL of the solution was transferred into a white impermeable 96-well plate (PE, 6005290), and the luminescence signal values were read using a multifunctional microplate reader (PerkinElmer, ENVISION).
Table 2. Inhibitory activity data for 3D proliferation of AGS and GP2d cells

Compound	IC50 (AGS cells; Homo sapiens, AGS)	IC50 (GP2d cells)	IC50 (AGS cells)
CCc1cccc2cc(O)cc(-c3cc4nc(OC[C@@]56CCCN5C[C@H](F)C6)nc5c4c(n3)OCC3C4CCC(CN53)N4)c12 (mixture of isomers) [Diastereomeric (1:1) mixture of 2-p1 and 2-p2]	0.0066 µM	0.0199 µM	–
Oc1cc(-c2cc3nc(OC[C@@]45CCCN4C[C@H](F)C5)nc4c3c(n2)OCC2C3CCC(CN42)N3)c2c(F)cccc2c1 (single isomer, unassigned) [Diastereomeric (1:1) mixture of 1-p1 and 1-p2]	–	–	0.0941 µM
CCc1cccc2cc(O)cc(-c3nc4c5c(nc(OC[C@@]67CCCN6C[C@H](F)C7)nc5c3F)N3CC5CCC(N5)C3CO4)c12 (single isomer, unassigned) [Diastereomeric (1:1) mixture of 4-p1 and 4-p2]	–	–	0.00135 µM
CCc1cccc2cc(O)cc(-c3cc4c5c(nc(OC[C@@]67CCCN6C[C@H](F)C7)nc5c3F)N3CC5CCC(N5)C3CO4)c12 (single isomer, unassigned) [Diastereomeric (1:1) mixture of 11-p1 and 11-p2]	–	0.0625 µM	0.0156 µM
CCc1cccc2cc(O)cc(-c3nc4c5c(nc(OC[C@@]67CCCN6C[C@H](F)C7)nc5c3F)N3C[C@@H]5CC[C@@H](N5)[C@@H]3CO4)c12 [Example 4-p2, 5-Ethyl-4-((5aR,6R,9S)-1-fluoro-12-(((2R,7aS)-2-fluorotetrahydro-1H-pyrrolizin-7a(5H )-yl)methoxy)-5a,6,7,8,9,10-hexahydro-5H-4-oxa-3,10a,11,13,14-pentaaza-6,9-methanonaphtho[1,8-ab]heptalen-2-yl)naphthalen-2-ol]	0.0865 µM	–	–
CCc1c(F)ccc2cc(O)cc(-c3nc4c5c(nc(OC[C@@]67CCCN6C[C@H](F)C7)nc5c3F)N3C[C@@H]5CC[C@@H](N5)[C@@H]3CO4)c12 [Example 9-p2, 5-Ethyl-6-fluoro-4-((5aR,6R,9S)-1-fluoro-12-(((2R,7aS)-2-fluorotetrahydro-1H-pyrrolizin-7a(5H)-yl)methoxy)-5a,6,7,8,9,10-hexahydro-5H-4-oxa-3,10a,11,13,14-pentaaza-6,9-methanonaphtho[1,8-ab]heptalen-2-yl)naphthalen-2-ol]	0.0604 µM	–	–
Oc1cc(Cl)c(C(F)(F)F)c(-c2nc3c4c(nc(OC[C@@]56CCCN5C[C@H](F)C6)nc4c2F)N2C[C@H]4CC[C@H](N4)[C@H]2CO3)c1 [Example 14-p1, 3-Chloro-5-((5aS,6S,9R)-1-fluoro-12-(((2R,7aS)-2-fluorotetrahydro-1H-pyrrolizin-7a(5 H)-yl)methoxy)-5a,6,7,8,9,10-hexahydro-5H-4-oxa-3,10a,11,13,14-pentaaza-6,9-methanonaphtho[1,8-ab]heptalen-2-yl)-4-(trifluoromethyl)phenol]	0.0202 µM	–	–
CCc1c(F)ccc2cc(O)cc(-c3nc4c5c(nc(OCC6(CN7CCC[C@@H]7CO)CC6)nc5c3F)N3C[C@H]5CC[C@H](N5)[C@H]3CO4)c12 [Example 15, 5-Ethyl-6-fluoro-4-((5aS,6S,9R)-1-fluoro-12-((1-(((R)-2-(hydroxymethyl)pyrrolidin-1-yl)methyl)cyclopropyl)methoxy)-5a,6,7,8,9,10-hexahydro-5H-4-oxa-3,10a,11,13,14-pentaaza-6,9-methanonaphtho[1,8-ab]heptalen-2-yl)naphthalen-2-ol]	0.0134 µM	0.0072 µM	–
CCc1c(F)ccc2cc(O)cc(-c3nc4c5c(nc(OCC6(CN7CC=C[C@@H]7CO)CC6)nc5c3F)N3C[C@H]5CC[C@H](N5)[C@H]3CO4)c12 [Example 16, 5-Ethyl-6-fluoro-4-((5aS,6S,9R)-1-fluoro-12-((1-(((R)-2-(hydroxymethyl)-2,5-dihydro-1 H-pyrrol-1-yl)methyl)cyclopropyl)methoxy)-5a,6,7,8,9,10-hexahydro-5H-4-oxa-3,10a, 1 1,13,14-pentaaza-6,9-methanonaphtho[1,8-ab]heptalen-2-yl)naphthalen-2-ol]	0.0116 µM	0.0101 µM	–
CCc1c(F)ccc2cc(O)cc(-c3nc4c5c(nc(OCC6(CN7CC=C[C@H]7CO)CC6)nc5c3F)N3C[C@H]5CC[C@H](N5)[C@H]3CO4)c12 [Example 18, 5-Ethyl-6-fluoro-4-((5aS,6S,9R)-1-fluoro-12-((1-(((S)-2-(hydroxymethyl)-2,5-dihydro-1 H-pyrrol-1-yl)methyl)cyclopropyl)methoxy)-5a,6,7,8,9,10-hexahydro-5H-4-oxa-3,10a, 1 1,13,14-pentaaza-6,9-methanonaphtho[1,8-ab]heptalen-2-yl)naphthalen-2-ol]	0.0105 µM	0.0393 µM	–
CCc1c(F)ccc2cc(O)cc(-c3nc4c5c(nc(OCC6(CN7C[C@@H]8C[C@@H]8[C@@H]7CO)CC6)nc5c3F)N3C[C@H]5CC[C@H](N5)[C@H]3CO4)c12 [Example 19, 5 -Ethyl-6-fluoro-4-((5aS,6S,9R)-1-fluoro-12-((1-(((1S,2R,5R)-2-(hydroxymethyl)-3-azabicyclo[3.1.0]hex-3-yl)methyl)cyclopropyl)methoxy)-5a,6,7,8,9,10-hexahydro-5H-4-oxa-3,10a,11,13,14-pentaaza-6,9-methanonaphtho[1,8-ab]heptalen-2-yl)naphthalen-2-ol]	0.0311 µM	0.0289 µM	–
CCc1c(F)ccc2cc(O)cc(-c3nc4c5c(nc(OCC6(CN7C[C@@H]8C[C@@H]8[C@H]7CO)CC6)nc5c3F)N3C[C@H]5CC[C@H](N5)[C@H]3CO4)c12 [Example 20, 5 -Ethyl-6-fluoro-4-((5aS,6S,9R)-1-fluoro-12-((1-(((1S,2S,5R)-2-(hydroxymethyl)-3-azabicyclo[3.1.0]hex-3-yl)methyl)cyclopropyl)methoxy)-5a,6,7,8,9,10-hexahydro-5H-4-oxa-3,10a,11,13,14-pentaaza-6,9-methanonaphtho[1,8-ab]heptalen-2-yl)naphthalen-2-ol]	0.014 µM	0.0088 µM	–
CCc1c(F)ccc2cc(O)cc(-c3nc4c5c(nc(OCC6(CN7C[C@H]8C[C@H]8[C@@H]7CO)CC6)nc5c3F)N3C[C@H]5CC[C@H](N5)[C@H]3CO4)c12 [Example 21, 5 -Ethyl-6-fluoro-4-((5aS,6S,9R)-1-fluoro-12-((1-(((1R,2R,5S)-2-(hydroxymethyl)-3-azabicyclo[3.1.0]hex-3-yl)methyl)cyclopropyl)methoxy)-5a,6,7,8,9,10-hexahydro-5H-4-oxa-3,10a,11,13,14-pentaaza-6,9-methanonaphtho[1,8-ab]heptalen-2-yl)naphthalen-2-ol]	0.0081 µM	0.0147 µM	–
CCc1c(F)ccc2cc(O)cc(-c3nc4c5c(nc(OCC6(CN7CCC[C@H]7COC(=O)N(C)C)CC6)nc5c3F)N3C[C@H]5CC[C@H](N5)[C@H]3CO4)c12 [Example 25, ((S)-1-((1-((((5aS,6S,9R)-2-(8-ethyl-7-fluoro-3-hydroxynaphthalen-1-yl)-1-fluoro-5a,6,7,8,9,10-hexahydro-5H-4-oxa-3,10a,11,13,14-pentaaza-6,9-methanonaphtho[1,8-ab]heptalen-12-yl)oxy)methyl)cyclopropyl)methyl)pyrrolidin-2-yl)methyl dimethylcarbamate]	0.0235 µM	0.0485 µM	–
